Data reported in PubChem BioAssay AID248 (DTP/NCI, 2004).
Values joined by “and” are separate entries in the source; they are usually repeats but may differ in a detail not shown here. Equal values may be shown once. Toxic doses and inconclusive results are not listed. No stated cut-off is given here; in the data, active means T/C of 150% or more; inactive means T/C below 125%.

Tested on: L1210 leukemia ip in BDF1 mice, survival T/C
Assay: NCI In Vivo Anticancer Drug Screen. Data for tumor model L1210 Leukemia (intraperitoneal) in B6D2F1 (BDF1) mice
Conditions: endpoint: mean survival time, higher = longer survival
Method in brief: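 Transplanted-tumor mice were given test agent; controls received vehicle only. Survival readings from the two groups were divided (treated over control).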

[1] = dose: 100.0 mg/kg/injection, schedule: Q01DX009 (ip), vehicle: saline with Tween-80
[2] = dose: 200.0 mg/kg/injection, schedule: Q01DX009 (ip), vehicle: saline with Tween-80
[3] = dose: 400.0 mg/kg/injection, schedule: Q01DX009 (ip), vehicle: saline with Tween-80

Measured: T/C

CC(C)C[C@H]1C(=O)N2CCC[C@H]2[C@]2(O)O[C@](NC(=O)[C@@H]3C=C4c5cccc6[nH]c(Br)c(c56)C[C@H]4N(C)C3)(C(C)C)C(=O)N12
inactive: [1] 105 % of control | [2] 106 % of control

[Cl][Pd][Cl].[NH-]CCN1CC1
inactive: dose: 25.0 mg/kg/injection, schedule: Q04DX002 (ip), vehicle: saline + alcohol 113 % of control | dose: 50.0 mg/kg/injection, schedule: Q04DX002 (ip), vehicle: saline + alcohol 102 % of control | dose: 100.0 mg/kg/injection, schedule: Q04DX002 (ip), vehicle: saline + alcohol 117 % of control | dose: 100.0 mg/kg/injection, schedule: Q04DX002 (ip), vehicle: saline 116 % of control

CC(C)(C)CC(C)(C)NCC(O)COc1ccc(C(C)(C)c2ccc(OCC(O)CNC(C)(C)CC(C)(C)C)cc2)cc1 (centres undefined)
inactive: dose: 3.13 mg/kg/injection, schedule: Q04DX003 (ip), vehicle: other 93 % of control | dose: 6.25 mg/kg/injection, schedule: Q01DX001 (ip), vehicle: saline sonified 97 % of control | dose: 6.25 mg/kg/injection, schedule: Q04DX003 (ip), vehicle: other 97 % of control | dose: 12.5 mg/kg/injection, schedule: Q01DX001 (ip), vehicle: saline sonified 96 % of control | dose: 12.5 mg/kg/injection, schedule: Q04DX003 (ip), vehicle: other 98 % of control | dose: 25.0 mg/kg/injection, schedule: Q04DX003 (ip), vehicle: other 93 % of control

CCC(=O)OC1(c2ccccc2)CCN(C2CC2)CC1
inactive: dose: 25.0 mg/kg/injection, schedule: Q01DX001 (ip), vehicle: Klucel (hydroxypropylcellulose) (HPC) 92 % of control | dose: 50.0 mg/kg/injection, schedule: Q01DX001 (ip), vehicle: Klucel (hydroxypropylcellulose) (HPC) 97 % of control | dose: 100.0 mg/kg/injection, schedule: Q01DX001 (ip), vehicle: Klucel (hydroxypropylcellulose) (HPC) 100 % of control

CCCCN(C)N=Nc1ccc([N+](=O)[O-])cc1C(N)=O
inactive: dose: 100.0 mg/kg/injection, schedule: Q01DX001 (ip), vehicle: other 100 % of control | dose: 100.0 mg/kg/injection, schedule: Q04DX003 (ip), vehicle: saline with Tween-80 110 % of control | dose: 200.0 mg/kg/injection, schedule: Q01DX001 (ip), vehicle: other 105 % of control | [2] 122 % of control | dose: 200.0 mg/kg/injection, schedule: Q04DX003 (ip), vehicle: saline with Tween-80 109 % of control | dose: 400.0 mg/kg/injection, schedule: Q01DX001 (ip), vehicle: other 110 % of control | dose: 400.0 mg/kg/injection, schedule: Q04DX003 (ip), vehicle: saline with Tween-80 115 % of control
active: dose: 266.0 mg/kg/injection, schedule: Q01DX009 (ip), vehicle: saline with Tween-80 160 % of control | [3] 165 % of control and 170 % of control | dose: 600.0 mg/kg/injection, schedule: Q01DX009 (ip), vehicle: saline with Tween-80 200 % of control

COc1cccc(/C=C/[N+](=O)[O-])c1
inactive: dose: 12.5 mg/kg/injection, schedule: Q01DX009 (ip), vehicle: Klucel (hydroxypropylcellulose) (HPC) 95 % of control | dose: 25.0 mg/kg/injection, schedule: Q01DX009 (ip), vehicle: Klucel (hydroxypropylcellulose) (HPC) 98 % of control | dose: 25.0 mg/kg/injection, schedule: Q04DX003 (ip), vehicle: Klucel (hydroxypropylcellulose) (HPC) 89 % of control | dose: 45.0 mg/kg/injection, schedule: Q04DX003 (ip), vehicle: saline with Tween-80 103 % of control | dose: 50.0 mg/kg/injection, schedule: Q01DX009 (ip), vehicle: Klucel (hydroxypropylcellulose) (HPC) 97 % of control | dose: 50.0 mg/kg/injection, schedule: Q04DX003 (ip), vehicle: Klucel (hydroxypropylcellulose) (HPC) 96 % of control | dose: 90.0 mg/kg/injection, schedule: Q04DX003 (ip), vehicle: saline with Tween-80 106 % of control | dose: 180.0 mg/kg/injection, schedule: Q04DX003 (ip), vehicle: saline with Tween-80 90 % of control

Cc1ccc(/C(=C/c2ccc([N+](=O)[O-])cc2)C(=O)Nc2ccc(S(=O)(=O)F)cc2)cc1
inactive: [1] 94 % of control | [2] 89 % of control | [3] 86 % of control

CCC(N)Cc1ccc2c(c1)OCO2 (centres undefined)
inactive: dose: 25.0 mg/kg/injection, schedule: Q04DX003 (ip), vehicle: saline 98 % of control | dose: 50.0 mg/kg/injection, schedule: Q04DX003 (ip), vehicle: saline 101 % of control | dose: 100.0 mg/kg/injection, schedule: Q04DX003 (ip), vehicle: saline 100 % of control
